In publication PMC9032987, “Cytotoxic Alkylynols of the Sponge Cribrochalina vasculum: Structure, Synthetic Analogs and SAR Studies” (Marine Drugs, 2022):

Legend:
Type in all cases: cell-based, human
NSCLC U-1810 cells = experiment: MTT cytotoxicity assay in NSCLC U-1810 cells; settings: for IC50: MTT, 72 h post addition, estimated from cell viability curve; for Selectivity NSCLC cells (U-1810) vs. diploid fibroblasts (WI-38): calculated at IC50 (WI-38 IC50 / U-1810 IC50); for viability at 113 µM: U-1810, at 113 µM
Procedure: (§1) Cytotoxicity structure-activity relationship analyses of compounds in NSCLC tumor cells and fibroblasts. Stock solutions (10 mg/mL) of the compounds to be tested were made in DMSO and further diluted with cell culture media prior to structure-activity relationship (SAR) screening as earlier described. To assess anti-tumor activity, the large cell lung carcinoma cell line NSCLC U-1810 (kind gift from Uppsala University) and diploid lung fibroblasts WI-38 [30] were used. U-1810 cells were propagated in RPMI-1640 medium (Sigma-Aldrich, St. Louis, […], USA) supplemented with FBS (10% HyClone) and L-glutamine (2 mmol/L, Invitrogen) while WI-38 fibroblasts were cultured in Eagle’s Minimum Essential Medium (Sigma-Aldrich) with 15% FBS and L-glutamine. For SAR assessment the cytotoxic assay 3-(4,5-dimethylthiazol-2-yl)-2,5 diphenyltetrazolium bromide (MTT) was applied. Profiling of U-1810 cells was carried out at 80% confluency (obtained by seeding 5000 cells/well in a 96-well plate for 24 h prior to treatment) and of WI-38 at 100% confluency (obtained by seeding 18,000 cells/well in a 96-well plate for 24 h prior to compound addition), the later to mimic the behavior of fibroblasts in the human body where they are non-dividing. For SAR evaluation, different concentrations of the compounds were added to fresh media while untreated cells were treated with DMSO corresponding to the amount applied when testing the highest concentration of the different compounds. The cytotoxicity of the compounds was assessed at 72 h post addition to cells by adding MTT solution (0.5 mg/mL, Sigma-Aldrich, 4 h at 37 °C) and dissolving the resulting formazan crystals in an SDS-containing solution (10% SDS and 0.01 mol/L HCl). Absorbance was quantified at 595 nm and the compound-induced cytotoxicity was calculated relative to that observed in DMSO-treated cells. The IC50 values were deduced from survival plots drawn in Graph Pad PRISM software vers.6 and for some of the compounds extrapolated as indicated in footnotes to Table 1.

[1] = tested on: WI-38 diploid lung fibroblasts; experiment: MTT cytotoxicity assay in diploid lung fibroblasts WI-38; settings: MTT, 72 h post addition, confluent cells, estimated from cell viability curve
Procedure: as §1

[2] = as above; settings: human, WI-38 diploid lung fibroblasts, 72 h, read-out: cell viability; for viability at 72 h, 188 µM: WI-38, at 188 µM; for viability at 72 h, 113 µM: WI-38, at 113 µM
Procedure: as §1

[3] = Homo sapiens, 72 h, read-out: cell viability

**Q.** What does the source list for `C#CC(O)c1ccccc1` (racemic) [rac-49, 1-Phenylprop-2-yn-1-ol]?
**A.** cytotoxic activity in NSCLC U-1810 cells (in words) (NSCLC U-1810 cells): did not display any anti-tumor effect; IC50 (NSCLC U-1810 cells; Homo sapiens, U-1810, 72 h): > 379 µM; viability at 379 µM (NSCLC U-1810 cells; Homo sapiens, U-1810, at 379 µM, 72 h, read-out: cell viability): ~80%

**Q.** For `C#C[C@H](O)/C=C/CCCCCCCCCCCCC(C)C` [Compound 1, (3R)-18-Methylnonadec-(4E)-en-1-yn-3-ol], which IC50 ([1]; Homo sapiens, WI-38, 72 h) is on record?
**A.** Its IC50 is 12 µM.

**Q.** And the “cytotoxic activity in NSCLC U-1810 cells (in words)” value (“cytotoxic activity” below) (NSCLC U-1810 cells)?
**A.** The value was “equally active”.

**Q.** And the “tumor selective cytotoxicity NSCLC vs WI-38 (in words)” value (from here on “tumor selective cytotoxicity NSCLC”) (NSCLC U-1810 cells)?
**A.** The value was “selectivity at lower doses”.

**Q.** And the IC50 (NSCLC U-1810 cells; Homo sapiens, U-1810, 72 h)?
**A.** The IC50 was 1 µM.

**Q.** What about the “Selectivity NSCLC cells (U-1810) vs. diploid fibroblasts (WI-38)” value (shortened to “Selectivity NSCLC cells”) (NSCLC U-1810 cells) of the same compound?
**A.** The value was 12.

**Q.** For `C#CC(=O)/C=C/CCCCCCCCC(C)CCCCCC` (stereo not drawn) [Compound 6, 14-Methylicos-(4E)-en-1-yn-3-one], which IC50 ([1]; Homo sapiens, WI-38, 72 h) is on record?
**A.** Its IC50 is 73 µM.

**Q.** What about the “cytotoxic activity” value (NSCLC U-1810 cells) of the same compound?
**A.** Its value is “not active”.

**Q.** What about the IC50 (NSCLC U-1810 cells; Homo sapiens, U-1810, 72 h) of the same compound?
**A.** Its IC50 is 65 µM.

**Q.** What about the “Selectivity NSCLC cells” value (NSCLC U-1810 cells) of the same compound?
**A.** Its value is 1.1.

**Q.** For `C#C[C@H](O)CCCCCCCCCCC(C)CCCCCC` (stereo partly drawn) [Compound 7, (3R)-14-Methylicos-1-yn-3-ol], which IC50 ([1]; Homo sapiens, WI-38, 72 h) is on record?
**A.** The IC50 was greater than 163 µM.

**Q.** What about the “cytotoxic activity” value (NSCLC U-1810 cells) of the same compound?
**A.** Its value is “equally active”.

**Q.** And the “tumor selective cytotoxicity NSCLC” value (NSCLC U-1810 cells)?
**A.** Its value is “clear tumor selective activity”.

**Q.** What about the IC50 (NSCLC U-1810 cells; Homo sapiens, U-1810, 72 h) of the same compound?
**A.** Its IC50 is 3 µM.

**Q.** For `C#CC(O)C=CCCCCCCCC1CC1CCCCCC` (stereo not drawn) [Compound 8], which IC50 ([1]; Homo sapiens, WI-38, 72 h) is on record?
**A.** Its IC50 is 10 µM.

**Q.** And the “cytotoxic activity” value (NSCLC U-1810 cells)?
**A.** The value was “equally active”.

**Q.** And the “tumor selective cytotoxicity NSCLC” value (NSCLC U-1810 cells)?
**A.** Its value is “selectivity at lower doses”.

**Q.** What about the IC50 (NSCLC U-1810 cells; Homo sapiens, U-1810, 72 h) of the same compound?
**A.** Its IC50 is 1 µM.

**Q.** What about the “Selectivity NSCLC cells” value (NSCLC U-1810 cells) of the same compound?
**A.** Its value is 10.

**Q.** Which IC50 ([1]; Homo sapiens, WI-38, 72 h) does the source give for `C#CC(=O)/C=C/CCCCCCCCC/C=C\CCCCCC` [Compound 10, Docos-(4E,15Z)-dien-1-yn-3-one] here?
**A.** The IC50 was 30 µM.

**Q.** What about the “cytotoxic activity” value (NSCLC U-1810 cells) of the same compound?
**A.** Its value is “not active”.

**Q.** What about the IC50 (NSCLC U-1810 cells; Homo sapiens, U-1810, 72 h) of the same compound?
**A.** Its IC50 is roughly 80 µM.

**Q.** What about the “Selectivity NSCLC cells” value (NSCLC U-1810 cells) of the same compound?
**A.** The value was roughly 0.4.

**Q.** For `C#C[C@H](O)/C=C/CCCCCCCCCCCCCC(C)C` [Compound 19, (3R)-19-Methylicos-(4E)-en-1-yn-3-ol], which IC50 ([1]; Homo sapiens, WI-38, 72 h) is on record?
**A.** Its IC50 is 13 µM.

**Q.** And the “cytotoxic activity” value (NSCLC U-1810 cells)?
**A.** The value was “equally active”.

**Q.** What about the IC50 (NSCLC U-1810 cells; Homo sapiens, U-1810, 72 h) of the same compound?
**A.** The IC50 was 2 µM.

**Q.** And the “Selectivity NSCLC cells” value (NSCLC U-1810 cells)?
**A.** The value was 6.5.

**Q.** Which IC50 ([1]; Homo sapiens, WI-38, 72 h) does the source give for `C#C[C@H](O)/C=C/CCCCCCCCCCCCCCCC` [Compound 20, (3R)-Henicos-(4E)-en-1-yn-3-ol] here?
**A.** The IC50 was 14 µM.

**Q.** And the “cytotoxic activity” value (NSCLC U-1810 cells)?
**A.** Its value is “equally active”.

**Q.** And the IC50 (NSCLC U-1810 cells; Homo sapiens, U-1810, 72 h)?
**A.** The IC50 was 1.4 µM.

**Q.** And the “Selectivity NSCLC cells” value (NSCLC U-1810 cells)?
**A.** Its value is 10.

**Q.** Which IC50 ([1]; Homo sapiens, WI-38, 72 h) does the source give for `C#C[C@H](O)/C=C/CCCCCCCCC/C=C\CCCCC(C)C` [Compound 22, (3R)-21-Methyldocos-(4E,15Z)-dien-1-yn-3-ol] here?
**A.** The IC50 was 13 µM.

**Q.** And the “cytotoxic activity” value (NSCLC U-1810 cells)?
**A.** Its value is “equally active”.

**Q.** What about the IC50 (NSCLC U-1810 cells; Homo sapiens, U-1810, 72 h) of the same compound?
**A.** The IC50 was 1.2 µM.

**Q.** What about the “Selectivity NSCLC cells” value (NSCLC U-1810 cells) of the same compound?
**A.** Its value is 10.8.

**Q.** Which IC50 [1] does the source give for `C#C[C@H](O)/C=C/CCCCCCCCCCCCCCC` [Compound R-18, (R,E)-icos-4-en-1-yn-3-ol] here?
**A.** Its IC50 is 3.4 µM.

**Q.** And the IC50 (NSCLC U-1810 cells)?
**A.** Its IC50 is 0.9 µM.

**Q.** And the “Selectivity NSCLC cells” value (NSCLC U-1810 cells)?
**A.** The value was 3.8.

**Q.** Which IC50 ([1]; Homo sapiens, WI-38, 72 h) does the source give for `C#C[C@H](O)CCCCCCCCCCCCCCC` [Compound R-32, (R)-octadec-1-yn-3-ol] here?
**A.** Its IC50 is greater than 188 µM.

**Q.** And the viability at 72 h, 188 µM [2]?
**A.** Its viability at 72 h, 188 µM is roughly 60%.

**Q.** What about the IC50 (NSCLC U-1810 cells; Homo sapiens, U-1810, 72 h) of the same compound?
**A.** Its IC50 is 1.4 µM.

**Q.** Which results are given for `C#C[C@@H](O)CCCCCCCCCCCCCCC` [Compound S-32, (S)-octadec-1-yn-3-ol]?
**A.** IC50 ([1]; Homo sapiens, WI-38, 72 h): > 188 µM; viability at 72 h, 188 µM [2]: ~80%; IC50 (NSCLC U-1810 cells; Homo sapiens, U-1810, 72 h): 140 µM

**Q.** For `C#C[C@@H](CCCCCCCCCCCCCCC)OC(=O)[C@](OC)(c1ccccc1)C(F)(F)F` [R,R-34, (R)-((R)-octadec-1-yn-3-yl)-3,3,3-trifluoro-2-methoxy-2-phenylpropanoate], which IC50 ([1]; Homo sapiens, WI-38, 72 h) is on record?
**A.** Its IC50 is greater than 113 µM.

**Q.** What about the viability at 72 h, 113 µM [2] of the same compound?
**A.** The viability at 72 h, 113 µM was roughly 100%.

**Q.** And the IC50 (NSCLC U-1810 cells; Homo sapiens, U-1810, 72 h)?
**A.** Its IC50 is greater than 113 µM.

**Q.** What about the viability at 113 µM (NSCLC U-1810 cells; [3]) of the same compound?
**A.** The viability at 113 µM was roughly 100%.

**Q.** For `C#C[C@H](CCCCCCCCCCCCCCC)OC(=O)[C@](OC)(c1ccccc1)C(F)(F)F` [S,R-34, (R)-((S)-octadec-1-yn-3-yl)-3,3,3-trifluoro-2-methoxy-2-phenylpropanoate], which IC50 ([1]; Homo sapiens, WI-38, 72 h) is on record?
**A.** The IC50 was greater than 113 µM.

**Q.** What about the viability at 72 h, 113 µM [2] of the same compound?
**A.** The viability at 72 h, 113 µM was roughly 100%.

**Q.** And the IC50 (NSCLC U-1810 cells; Homo sapiens, U-1810, 72 h)?
**A.** The IC50 was greater than 113 µM.

**Q.** What about the viability at 113 µM (NSCLC U-1810 cells; [3]) of the same compound?
**A.** Its viability at 113 µM is roughly 96%.

**Q.** With `C#C[C@H](O)/C=C/CCCCCCCCCCCCCCC` [scal-R-18, (R,E)-icos-4-en-1-yn-3-ol] as the compound, how does the IC50 ([1]; Homo sapiens, WI-38, 72 h) read?
**A.** The IC50 was 6.8 µM.

**Q.** And the IC50 (NSCLC U-1810 cells; Homo sapiens, U-1810, 72 h)?
**A.** Its IC50 is 1 µM.

**Q.** And the “Selectivity NSCLC cells” value (NSCLC U-1810 cells)?
**A.** Its value is 6.8.

**Q.** With `C#C[C@@H](O)/C=C/CCCCCCCCCCCCCCC` [scal-S-18, (S)-icos-(4E)-en-1-yn-3-ol] as the compound, how does the IC50 ([1]; Homo sapiens, WI-38, 72 h) read?
**A.** Its IC50 is 8.5 µM.

**Q.** What about the IC50 (NSCLC U-1810 cells; Homo sapiens, U-1810, 72 h) of the same compound?
**A.** Its IC50 is 1 µM.

**Q.** And the “Selectivity NSCLC cells” value (NSCLC U-1810 cells)?
**A.** The value was 8.5.
